Literature values in patent EP1232240B1, “DETERGENT COMPOSITIONS” (UNILEVER N.V., priority 1999, dated 2001).

Conditions: grams of solid to form a saturated solution in 100 grams of water at 20°C

## NC(N)=O [Urea]
  Water Solubility (g/100g): >100 g/100g
